# Assay results taken from patent publication US20130123367A1, “VINYLOGOUS CHALCONE DERIVATIVES AND THEIR MEDICAL USE” (MEDIZINISCHE UNIVERSITAT WIEN, priority 2010, published 2013).
# Read-outs that look alike come from different tables or passages of the source.
# Tests used:
# [1] = system: SU-DHL-6 (Non Hodgkin's lymphoma); test: Cell viability assay using EZ4U viability kit, SU-DHL-6; format: cell-based; details: Homo sapiens
# Description: (§1) For quantification, cells are treated with a tetrazolium salt as indicator of cell viability. […] Then, the solution is analyzed photometrically at 450 nm with 620 nm as reference.
# (§2) The final DMSO concentration was 0.5%. […] Then, wells were filled with 20 μl substrate solution for 2 to 4 hours and analyzed.
# (§3) Cell viability was calculated relative to DMSO control for data comparison. IC50 values (50% inhibition of cell growth) were determined with GraphPad Prism® (Version 4.03) using nonlinear regression (sigmoidal dose-response with variable slope).
# [2] = system: SU-DHL-6 or SU-DHL-9 NHL cells; test: Annexin V-FITC / propidium iodide staining, early apoptosis in NHL cells; format: cell-based; details: 48 h incubation; FIG. 2
# Description: FIG. 2. Changes in early apoptosis in SU-DHL-6 or SU-DHL-9 NHL cells after 48 h incubation with compounds 1 and 22, respectively. Effect of compound 1 in a) SU-DHL-6 and b) SU-DHL-9, and effect of compound 22 in c) SU-DHL-6 and d) SU-DHL-9. Apoptosis was detected using propidium iodide/Annexin V FACS staining (Bender MedSystems). Viability was detected using the EZ4U viability kit (Biomedica).
# Annexin V binds to phosphatidylserine which is exposed at the cell surface during execution of apoptosis. […] The final DMSO concentration was 0.5%. All treatments and controls were performed twice. […] Then, growth medium was removed by centrifugation, the supernatant discarded and 200 μl of an Annexin V solution were added. After 10 minutes in the dark, cells were washed once with Annexin buffer and the solution removed by centrifugation. The supernatant was discarded again and cells were suspended in 200 μl of a propidium iodide solution. Cells were measured by flow cytometry with a total of 10 000 events. Data were analyzed with CellQuest Pro™.
# [3] = system: Jurkat (T-cell acute lymphoblastic leukemia); test: Cell viability assay using EZ4U viability kit, Jurkat; format: cell-based; details: Homo sapiens
# Description: as §1, §2, §3
# [4] = system: CCRF-CEM (T-cell acute lymphoblastic leukemia); test: Cell viability assay using EZ4U viability kit, CCRF-CEM; format: cell-based; details: Homo sapiens
# Description: as §1, §2, §3
# melanoma cell line 518A2 = test: Cell proliferation assay using crystal violet, 518A2; format: cell-based; details: for IC50: Homo sapiens, 518A2, crystal violet assay, n = 3, 48 h incubation
# Description: For quantification, cells are treated with crystal violet, a dye that stains proteins. After washing away of excess dye, the remaining crystal violet is dissolved in a sodium citrate solution. The solution is analyzed photometrically at 590 nm. The optical density of this solution depends on the concentration of crystal violet and therefore on the amount of cells. […] To reduce effects of evaporation, only the inner 60 wells of 96-well plates (coated with 0.1% gelatine solution for studies with HUVEC) were used for experiments.
# Cells were seeded at a density of 5 000 cells per well in 100 μl growth medium (HUVEC) or 20 000 (HCT116), 15 000 (SW480 and 518A2) or 10 000 (HT29) cells per well in 200 μl growth medium in 55 wells per plate. 5 wells were filled with medium only. Additionally, a 96-well plate with cells in 12 wells and medium in 6 wells was prepared as T0-plate. The next day, additional 98 μl of growth medium were added in every well (only HUVEC).
# Cells were treated with 2 μl of the working solution 24 h after seeding. Final compound concentrations in the well were 10 μM for the first round of screening. The final DMSO concentration was 0.5%. […] After finishing the addition of compounds, the T0-plate was stained with crystal violet for giving the cell density at time point zero. Before staining, the growth medium was poured away. Wells were filled with 50 μl crystal violet solution for 10 min. Then the staining solution was washed away with water. Since crystal violet is environmentally hazardous the waste was collected and disposed in an appropriate manner. After air drying of the plates the crystal violet on the cells was dissolved in 100 μl of sodium citrate solution, and the absorption was measured with a plate reader at 590 nm.
# as §3, with “Mean values were corrected with the absorption of stained medium and the corrected absorption of T0 cells. Cell” for “Cell”, “growth” for “viability”
# Compounds showing an inhibition of proliferation of more than 50% at a concentration of 10 μM were defined as active, and their IC50-values were determined.
# [5] = system: SU-DHL-9 (Non Hodgkin's lymphoma); test: Cell viability assay using EZ4U viability kit, SU-DHL-9; format: cell-based
# Description: as §1, §2, §3
# [6] = system: healthy peripheral blood mononuclear cells (PBMC); test: Effect on healthy PBMC (CellTiter-Blue viability)
# Description: FIG. 8: Effect of compounds 1 and 22 according to the invention as well as the control drugs fludarabine and cyclophosphamide on the viability of healthy peripheral blood mononuclear cells (PBMC) in suspension culture after 48 h incubation. Data points represent one individual calculated in relation to the control. Viability was measured using the CellTiter Blue assay (Promega, Madison, Wis., USA), and cells incubated in solvent only were used as control.
# For quantification, cells were treated with resazurin (7-hydroxy-3H-phenoxazin-3-one 10-oxide) as indicator of cell viability. The method is based on the finding that living cells are able to reduce the non-fluorescent blue dye into the pink colored and highly red fluorescent resorufine. After adding the substrate the cells are incubated for 2 to 4 hours. Then, the solution is analyzed at 560 nm Ex/590 nm Em on a fluorometer. Appropriate cell density for seeding and duration of treatment with the substrate were determined in preliminary experiments.
# First, cells were seeded in 96 well plates and then growth medium was added to each well to get a final volume of 80 μl. Compounds to be tested were diluted with medium from a 10 mM stock solution in DMSO to get different concentrations, and 20 μl of these solutions were added to the wells. The final DMSO concentration was 0.5%. All treatments and controls were performed in at least triplicates. Cells were incubated at 37° C. and 5% CO2 for 48 h. Then, 20 μl substrate solution was added to the wells, plates were incubated for 3 hours and analyzed.
# The impact of the compounds according to the invention on healthy cells was assessed using peripheral blood mononuclear cells (PBMC). Cell viability was tested using the CellTiter-Blue Cell Viability Assay (Promega, Madison, Wis., USA) as described in Example 7.
# [7] = system: primary chronic lymphocytic leukemia (CLL) cells; test: In vitro drug test in primary CLL cells (CellTiter-Blue viability); format: cell-based; details: 48 h incubation; mean of 15 patients; FIG. 6
# Text: FIG. 6: […] Data points represent the arithmetic mean of 15 patients calculated in relation to the control. […] The final DMSO concentration was 0.5%.
# [8] = 24 h incubation, read-out: IC50 (nM) SU-DHL-6 24 h
# [9] = 48 h incubation, read-out: IC50 (nM) SU-DHL-6 48 h
# [10] = 24 h incubation, read-out: IC50 (nM) Jurkat 24 h (converted)
# [11] = 48 h incubation, read-out: IC50 (nM) Jurkat 48 h (converted)
# [12] = 24 h incubation, read-out: IC50 (nM) CCRF-CEM 24 h
# [13] = 48 h incubation, read-out: IC50 (nM) CCRF-CEM 48 h
# [14] = 24 h incubation, read-out: IC50 (nM) SU-DHL-9 24 h
# [15] = 48 h incubation, read-out: IC50 (nM) SU-DHL-9 48 h
compound,measurement,setting,value
"COc1ccccc1/C=C/C=C/C(=O)c1cc(OC)c(OC)c(OC)c1 [Compound 1, 5-(2-Methoxyphenyl)-1-(3′,4′,5′-trimethoxyphenyl)-2,4-pentadiene-1-one]",IC50,[1]; [8],180 nM
same,IC50,[1]; [9],20 nM
same,early apoptosis (propidium iodide/Annexin V FACS staining),[2],induce early apoptosis
same,IC50,[3]; [10],1110 nM
same,IC50,[3]; [11],630 nM
same,IC50,[4]; [12],70 nM
same,IC50,[4]; [13],70 nM
same,IC50,melanoma cell line 518A2,150 nM
same,IC50,[5]; [14],60 nM
same,IC50,[5]; [15],50 nM
same,viability of healthy PBMC in suspension culture (toxicity),[6],less toxic
same,viability of primary CLL cells in suspension culture,[7],effective in CLL cells at lower concentrations than the standard therapeutic drugs fludarabine and cyclophosphamide
"CCOc1ccccc1C(=O)/C=C/c1ccc2ccccc2c1 [Compound 22, 3-(2-Naphthyl)-1-(2′-ethoxyphenyl)-2-propene-1-one]",IC50,[1]; [8],10 nM
same,IC50,[1]; [9],40 nM
same,early apoptosis (propidium iodide/Annexin V FACS staining),[2],induce early apoptosis
same,IC50,[3]; [10],7840 nM
same,IC50,[3]; [11],7210 nM
same,IC50,[4]; [12],40 nM
same,IC50,[4]; [13],40 nM
same,IC50,melanoma cell line 518A2,40 nM
same,potency relative to cisplatin,"melanoma cell line 518A2; melanoma cell line 518A2, ratio of IC50 values",about 250 times
same,IC50,[5]; [14],30 nM
same,IC50,[5]; [15],50 nM
same,viability of healthy PBMC in suspension culture (toxicity),[6],less toxic
same,viability of primary CLL cells in suspension culture,[7],effective in CLL cells at lower concentrations than the standard therapeutic drugs fludarabine and cyclophosphamide
